Several values for one entry are separate records, joined by “and”; a condition that tells them apart may be missing. Identical values can stand only once.
Key:
[1] = biological target: KA receptors (kainic acid-induced currents); test: Inhibition of KA-induced currents in rat brain mRNA-injected Xenopus oocytes; assay type: cell-based; details: Xenopus oocytes injected with rat brain mRNA; IC50 converted to Ki by Cheng-Prusoff equation
Description: (§1) Defolliculated oocytes obtained from Xenopus laevis females were injected with 30-75 ng of poly (A+) mRNA obtained from 21-day old male Sprague-Dawley rats. Oocytes were placed individually in […] of antibiotic-supplemented modified Barthes solution (MBS, containing in mM: NaCl, 88; KCl, 1.0; NaHCO3, 2.4; HEPES, 10;MgSO4, 0.82; Ca(NO3)2, 0.33) in 96-well sterile plates and cultured for 48-120 hours prior to experimentation. Oocytes were inspected every 24 hours at which time the bathing solution is replaced with fresh MBS.
(§2) For electrophysiological studies, oocytes were positioned in a small recording chamber ([…]) and superfused with antibiotic free MBS supplemented with CaCl2 (final concentration=1.4 mM). Oocytes are impaled with a single glass microelectrode, voltage clamped at -60 to -70 mV, and perfused by gravity feed at a rate of […] at room temperature. […] Antagonists are coperfused with agonists. MBS used in NMDA assays were prepared from "glycine-free", deionized water
(§3) Potencies to inhibit kainic acid-, AMPA- and […] currents are determined from concentration-response curves. IC50 values are converted to Ki values for comparison purposes using the Cheng-Prusoff equation.

[2] = biological target: AMPA receptors (AMPA-induced currents); test: Inhibition of AMPA-induced currents in rat brain mRNA-injected Xenopus oocytes; assay type: cell-based; details: Xenopus oocytes injected with rat brain mRNA; IC50 converted to Ki by Cheng-Prusoff equation
Description: as §1, §2, §3

[3] = tested on: AMPA receptors; test: [3H]AMPA displacement binding; details: for Ki: [3H]AMPA displacement, read-out: Receptor Potency (Ki), AMPA
[4] = biological target: T1, strychnine insensitive glycine site (Rattus norvegicus, UniProt P35439); test: Strychnine insensitive glycine binding; details: read-out: Receptor Potency (Ki), Glycine
T1 construct: from tissue

[5] = biological target: GLU (NMDA receptors); test: GLU receptor ligand binding (NMDA receptors); details: read-out: Receptor Potency (Ki), GLU
[6] = biological target: KA receptor; test: KA receptor ligand binding; set-up: species or system rat
[7] = tested on: NMDA receptors; details: U.S. Pat. No. 4,657,899; cited from earlier work
[8] = tested on: kainate receptors; details: U.S. Pat. No. 4,657,899, Table I; cited from earlier work
[9] = biological target: CNQX labeled non-NMDA receptors; test: CNQX-labeled non-NMDA receptor binding; details: read-out: Receptor Potency (Ki), CNQX

Compound	Ki, inhibition of KA-induced currents [1]	Ki [4] [µM]	Ki [5] [µM]	NMDA antagonist activity [7]	binding affinity for kainate receptors [8]	further results
NC(CCCc1ccccc1CP(=O)(O)O)C(=O)O (stereo not drawn) [2-amino-5-[2-phosphonomethylphenyl]pentanoic acid]	–	–	–	antagonists of NMDA	very low binding affinity	–
Cc1ccc(CCCC(=O)O)c(C[C@H](N)C(=O)O)c1 [Example 26, 5-Methyl-2-(3'-carboxypropyl) phenylalanine]	13 µM and 13.3 µM	2400	> 1000	–	–	Ki [9]: 8.4 µM
NC(Cc1ccccc1CP(=O)(O)O)C(=O)O (stereo not drawn) [2-amino-3-[2-phosphonomethylphenyl]propanoic acid]	–	–	–	antagonists of NMDA	very low binding affinity	–
NC(Cc1ccccc1CCCP(=O)(O)O)C(=O)O (stereo not drawn) [2-amino-3-[2-(3-phosphonopropyl)phenyl]propanoic acid]	–	–	–	antagonists of NMDA	very low binding affinity	–
NC(Cc1ccccc1CCP(=O)(O)O)C(=O)O (stereo not drawn) [2-amino-3-[2-(2-phosphonoethyl)phenyl]propanoic acid]	–	–	–	antagonists of NMDA	very low binding affinity	–

Second part, led by results:

Ki, inhibition of KA-induced currents [1]	Ki [4] [µM]	Ki [5] [µM]	Compound	NMDA antagonist activity [7]	binding affinity for kainate receptors [8]	further results
32 µM	9	> 300	NC(Cc1cc(Cl)ccc1CCC(=O)O)C(=O)O (stereo not drawn) [Example 5b]	–	–	Ki [2]: 96 µM; selectivity for AMPA versus NMDA receptors ([3]; Ki GLU >300 μM versus Ki AMPA 51 μM): at least six-fold selective; Ki [3]: 51 µM; Receptor Potency (Ki), KA [6]: 506 µM
84 µM	211	> 1000	Cc1cc(C)c(CCC(=O)O)c(C[C@H](N)C(=O)O)c1 [Example 5c, 3,5-Dimethyl-2-(2'-carboxyethyl)phenylalanine]	–	–	–
> 50 µM	41	> 300	NC(Cc1cc(F)ccc1CCC(=O)O)C(=O)O (stereo not drawn) [Example 5a]	–	–	Ki [3]: 168 µM; Receptor Potency (Ki), KA [6]: 475 µM

Source: patent publication US5364876A, “Omega-[2-(alkyl)phenyl]-2-aminoalkanoic acids as antagonists of excitatory amino acid receptors” (Guilford Pharmaceuticals Inc., priority 1992, dated 1994)
